According to article PMC7162861, “Synthesis, cytotoxicity, pharmacokinetic profile, binding with DNA and BSA of new imidazo[1,2-a]pyrazine-benzo[d]imidazol-5-yl hybrids” (Scientific Reports, 2020):

Columns and labels:
[1] = Experimental log P, shake-flask method; format: physicochemical; settings: n-octanol/phosphate buffer pH 7.4, read-out: Exp. Log P
Protocol: Partition coefficients or experimental log P values of all synthesized compounds (9–23, 30 and 31) were calculated using the shake-flask method. Log P values were determined using n-octanol and phosphate buffer (pH = 7.4) at 10:1 ratio of volumes. Stock solutions (10^−3 M) of compounds were prepared in DMSO. Glass vials were used to make final solutions i.e. stock solution (250 µL) and phosphate buffer (125 µL). To record the absorbance, wavelength was selected based on λmax of the respective compound. Initial absorbance (Ai) for every compound was noted consuming the stock solution in the buffer phase. Now added n-octanol to every vial and shaken well using a mechanical shaker for 50 minutes. To get separation of both phases, glass vials were centrifuged for 35 min. at 2500 rpm. Then, the layer of octanol was separated from glass vial. The final absorbance (Af) of each compound was recorded by using the buffer layer. The values of P for compounds were determined by the following equation (Eq. 8):8 P=Ai−Af/Af×Vw/Vo

EtBr-CT-DNA complex = system: EtBr-CT-DNA complex; set-up: method as in printed; settings: used in Eq. 4; ref not given; cited from earlier work

| Compound | melting point | logP [1] | known binding constant KEtBr (EtBr-CT-DNA complex) |
| --- | --- | --- | --- |
| Clc1ccc(-c2cn3ccnc3c(-c3ccc4c(c3)ncn4C3CCCCC3)n2)cc1 [Compound 18, 6-(4-chlorophenyl)-8-(1-cyclohexyl-1H-benzo[d]imidazol-5-yl)imidazo[1,2-a]pyrazine] | 193 to 196 °C | 1.34 |  |
| COc1ccccc1-c1cn2ccnc2c(-c2ccc3c(c2)ncn3C2CCCCC2)n1 [Compound 20, 8-(1-cyclohexyl-1H-benzo[d]imidazol-5-yl)-6-(2-methoxyphenyl)imidazo[1,2-a]pyrazine] | 195 to 198 °C | 1.88 |  |
| Fc1ccccc1-c1cn2ccnc2c(-c2ccc3c(c2)ncn3C2CCCCC2)n1 [Compound 21, 8-(1-cyclohexyl-1H-benzo[d]imidazol-5-yl)-6-(2-fluorophenyl)imidazo[1,2-a]pyrazine] | 190 to 193 °C | 1.77 |  |
| CC[n+]1c(-c2ccccc2)c2cc(N)ccc2c2ccc(N)cc21 [ethidium bromide] |  |  | 1e+07 M⁻¹ |

Second part, led by results:

| melting point | logP [1] | Compound | known binding constant KEtBr (EtBr-CT-DNA complex) |
| --- | --- | --- | --- |
| 195 to 198 °C | 2.05 | Brc1ccc(-c2cn3ccnc3c(-c3ccc4c(c3)ncn4C3CCCCC3)n2)cc1 [Compound 19, 6-(4-bromophenyl)-8-(1-cyclohexyl-1H-benzo[d]imidazol-5-yl)imidazo[1,2-a]pyrazine] |  |
| 196 to 199 °C | 1.67 | FC(F)(F)c1cccc(-c2cn3ccnc3c(-c3ccc4c(c3)ncn4C3CCCCC3)n2)c1 [Compound 23, 8-(1-cyclohexyl-1H-benzo[d]imidazol-5-yl)-6-(3-(trifluoromethyl)phenyl)imidazo[1,2-a]pyrazine] |  |
